The source made the active and inactive calls. No cut-off for these calls is given here.
Key:
Type in all cases: functional, cell-based
EA.hy 926 [1] = experiment: Inhibition of tube formation in human EAhy926 cells at 25 uM after 24 hrs by phase-contrast microscopy
EA.hy 926 [2] = experiment: Inhibition of tube formation in human EAhy926 cells at 10 uM pre-incubated for 12 hrs measured after 24 hrs by phase-contrast microscopy
EA.hy 926 [3] = experiment: Inhibition of tube formation in human EAhy926 cells at 50 uM after 24 hrs by phase-contrast microscopy
EA.hy 926 [4] = experiment: Inhibition of tube formation in human EAhy926 cells after 24 hrs by phase-contrast microscopy
EA.hy 926 [5] = experiment: Inhibition of tube formation in human EAhy926 cells at 20 uM after 24 hrs by phase-contrast microscopy
EA.hy 926 [6] = experiment: Inhibition of tube formation in human EAhy926 cells at 40 uM after 24 hrs by phase-contrast microscopy

CCCCC/C=C/C=C/C(O)CCCCCCCC(=O)O (stereo not given)
Activity (EA.hy 926 [1]): Active

Cc1cccc(Nc2cc(Cl)nc(SCC(=O)O)n2)c1C
Activity (EA.hy 926 [2]): Active

CC/C=C\C/C=C\C/C=C\C/C=C\C/C=C\C/C=C\CCC(=O)O
Activity (EA.hy 926 [3]): inactive

CCCCC/C=C\C[C@@H](O)/C=C/C=C/C=C\[C@@H](O)CCCC(=O)O
Activity (EA.hy 926 [2]): Active

CC1(COc2ccc(CC3SC(=O)NC3=O)cc2)CCCCC1 (stereo not given)
Activity (EA.hy 926 [2]): Active

CCCCC/C=C\C=C\C(O)C/C=C\C/C=C\C/C=C\CCCCC(=O)O (stereo not given)
Activity (EA.hy 926 [2]): Active
Activity (EA.hy 926 [4]): Dose-dependent effect

CC/C=C\C/C=C\C/C=C\C/C=C\C/C=C\CCCC(=O)O
Activity (EA.hy 926 [3]): inactive

CCCCC/C=C\C=C\C(O)C/C=C\C/C=C\CCCC(=O)O (stereo not given)
Activity (EA.hy 926 [5]): Active
Activity (EA.hy 926 [6]): Active

Reference: ChEMBL document CHEMBL1154510, “A new antiangiogenic C24 oxylipin from the soft coral Sinularia numerosa” (Bioorg Med Chem, 2009)
